We go through three molecules from patent publication US11324726B2, “Small molecular Stemazole for promoting stem cell clonal formation and applications thereof” (BEIJING NORMAL UNIVERSITY, priority 2016, dated 2022).

The structures appear in SMILES notation.

The subject of experiment [1] is H9 cells. Briefly: Expression of stem cell markers after total nutrient removal culture, quantitative PCR and immunofluorescence (Example 5 I). The experiment is classed as cell-based, human. To be noted: 15 hours total nutrient removal culture; 100 μM. Here is the method: Following the experimental method in Example 3, H9 cells were divided into experiment group (ST group) and control group (DMSO group) and cultured. After 15 hours of total nutrient removal culture, the expression of each of human embryonic stem cells' important markers OCT-4, Sox2, FDF4, KLF4, REX1, and Nanog was detected by quantitative PCR.
Ct (Cycle threshold) of each sample was measured by calculating 2^−^ΔΔ^Ct, to compare differential expression of specific gene between different samples. In order to reduce systematic error and sampling error, triplicate wells in parallel were set for each sample. The average value of the triplicate wells was taken as the Ct of the sample, and then 2^−^ΔΔ^Ct was calculated according to the formulas below. […]
In addition, still following the experimental method in Example 3, 1H9 cells were divided into experiment group (ST group), control group (DMSO group) and normal culture group and cultured. After total nutrient removal culture for 15 hours, the expression of each of human embryonic stem cells' important markers OCT-4 and E-Cadherin was detected by immunofluorescence staining.

For experiment [2], the system named is H9 cells. Description: Embryoid body formation in total nutrient removal culture (Example 5 III). The note with it: measured at the 15th hour, 100 μM, compared to DMSO group. The experiment is classed as cell-based, human. Here is the method: Following the experimental method in Example 3, H9 cells were divided into experiment group (ST group), control group (DMSO group) and normal culture group and cultured. The formation of EBs was observed under a microscope at the 15th hour, and on day 2 and day 4 of total nutrient removal culture respectively, and the diameter and number of EBs were measured at the 15th hours.

In experiment [3] the test system is human embryonic stem cell strain H9 cells. Briefly: Single cell clone formation in single-cell culture, alkaline phosphatase and OCT-4 staining (Example 1). The note with it: 100 μM; for number of clones of alkaline phosphatase positive cells: H9 single cells on MEF feeder. Format: cell-based. On the procedure: Alkaline Phosphatase Staining—
1) Rinsing cells with PBS, 3 times;
2) Fixing the cell with 4% paraformaldehyde for 10 minutes;
3) Washing with PBS, 3 times;
4) Preparing alkaline phosphatase staining agent:solution A:solution B:solution C=10 μl:10 μl:1 ml;
5) Adding the alkaline phosphatase staining agent to cover the cells, and staining for 20 minutes at room temperature in dark;
6) Aspirating off the staining agent, rinsing with PBS 3 times, storing the cells in PBS, and observing staining under a microscope.
Immunofluorescence Staining—
After being digested into single cells, human embryonic stem cell strain H9 cells were divided into two groups as follows, and inoculated on low density MEF feeder layer cells in 96-well plates:
(§1) Experiment group (ST group): complete medium+Stemazole dissolved in DMSO at a final concentration in the culture medium of 100 μM;
Control group (DMSO group): complete medium+DMSO with an amount corresponding to the experiment group.
The cell ratio of each well in the two groups was H9 cell/100 MEF cells, and the medium was supplemented once every 4 days.
Alkaline phosphatase staining was performed on day 4 and day 8. The results are shown in FIG. 1A: the number and sizes of the clones formed by the H9 cells in the DMSO group were less and smaller, while the number and sizes of the clones formed in ST group were higher and larger. […] The number of clones of alkaline phosphatase positive cells in the DMSO group averaged about 12 on day 8, and the number of clones of the alkaline phosphatase positive cells in the ST group averaged about 23, and the difference between the number of the clones in the two groups was significant. As to the size, the diameter of the alkaline phosphatase positive cells in the DMSO group on day 4 averaged about 50 microns, and the diameter of the alkaline phosphatase positive cells in the ST group averaged about 100 microns. There was no significant difference between the sizes of the clones in the two groups. The diameter of the alkaline phosphatase positive cells in the DMSO group on day 8 averaged about 70 microns, and the diameter of the alkaline phosphatase positive cells in the ST group averaged about 200 microns. There was a significant difference between the sizes of the clones in the two groups.
OCT-4 immunofluorescence staining was performed on day 1 and day 8.

For experiment [4], the system named is human hippocampal neurosphere stem cells. Description: Cell viability assay (ATP) of neurosphere stem cells (Example 6). The note with it: series concentrations, 4 days; maximum increase versus DMSO control. Format: cell-based. Here is the method: 1) On a superclean bench and under sterile conditions, human embryo hippocampus was taken out;
2) After envelope and blood vessels were removed under a dissecting microscope, tissue obtained was rinsed with pre-cooled PBS at 4° C. 3-5 times, leaving a very small amount of PBS;
3) The tissue was cut into pieces using ophthalmic scissors, and about 5 ml of culture medium was added to suspend the tissue pieces, and then the obtained cell suspension was gently pipetted to achieve single cell state with a pipette tip;
4) The cell suspension was filtered through a 40 μm pore size cell sieve;
5) Cell density was regulated to 1×10^6/ml, and then the cells were inoculated into a […] glass culture flask;
6) The cells in the flask were cultured in a 37° C., 5% CO2 cell culture incubator.
The human hippocampal neurosphere stem cells were mechanically pipetted into small clones, regulated into a suitable density, and inoculated into a 96-well, black-wall plate at about 50 neurospheres/110 μL cell suspension/well. […] Without changing the medium, ATP was added at 20 μL/well after the compound acted for 4 days or other time, and the viability of cells was detected.

Experiment [5] deals with H9 cells. Description: Induced differentiation into endoderm, mesoderm and ectoderm cells, marker expression (Example 5 IV). Format: cell-based, human. The note with it: nutrient starving 15 hours, then 4 days differentiation medium; 100 μM. The source says:
Following the experimental method in Example 3, H9 cells were divided into experiment group (ST group), control group (DMSO group) and normal culture group and cultured.
The H9 cells were digested by Collagenase IV, washed with DMEM (high glucose) 3 times, and gently blown into small cell clusters, then were inoculated into 100 mm petri dishes with the culture medium changed into differentiation culture medium (DMEM/F12, 20% FBS, 1× non-essential amino acid, 1×sodium pyruvate, 1×β-mercaptoethanol, double antibiotics, and 2 mM glutamine). The medium was changed every 2 days, and the dishes were observed on each day. After 4 days, RNA was extracted and the differentiation ability of the H9 cells to endoderm, mesoderm and ectoderm cells was detected.

In experiment [6] the test system is Human embryonic stem cell strain H1-9 cells. Briefly: Number of cells as a function of culture time in single-cell culture (Example 4). Format: cell-based. The note with it: 100 μM; complete medium; single-cell culture on MEF feeder. Here is the method: Human embryonic stem cell strain H1-9 cells were digested into single cells, then divided into following three groups and inoculated on low-density MEF feeder layer cells in 6-well plates:
as §1
Control group (DMSO group): complete medium+DMSO with the amount corresponding to the experiment group;
(§2) Normal culture group: complete medium.
The cells in each well of the three groups were maintained well grown on the MEF feeder layer cells, and the medium was supplemented once every 4 days.

Experiment [7] has as its system Human embryonic stem cell line H9 cells. Description: Apoptosis during total nutrient removal culture, Annexin V/PI flow cytometry (Example 3). Format: cell-based. To be noted: total nutrient removal for 15 hours; 100 μM; DMSO group about 43%, normal culture about 0.4%. On the procedure: After passaged, human embryonic stem cell line H9 cells were divided into the following two groups and inoculated in 6-well plates:
Experiment group (ST group): total nutrient removal culture medium (complete medium with removal of serum and growth factor)+Stemazole dissolved in DMSO at a final concentration in the culture medium of 100 μM;
Control group (DMSO group): total nutrient removal culture medium+DMSO with an amount corresponding to the experiment group;
as §2
Apoptosis was detected by flow cytometry using the specific apoptosis assay kit Annexin V/PI.
A general note: In flow cytometry, cells or beads pass a laser one at a time.

Experiment [8] has the same test system. Briefly: Apoptosis in single-cell culture, Annexin V/PI flow cytometry (Example 2). The note with it: day 2 of inoculation; Stemazole 100 μM, Y27632 10 μM; DMSO group 54.1%. Format: cell-based. Here is the method: Human embryonic stem cell line H9 cells were digested into single cells, divided into 3 groups as follows, and then inoculated at a low density on low-density MEF feeder layer cells in 6-well plates:
Experiment group (ST group): complete medium+Stemazole dissolved in DMSO at a concentration in the final culture medium of 100 μM;
Negative control group (DMSO group): complete medium+DMSO at an amount corresponding to the experiment group;
Positive control group (Y27632 group): complete medium+Y27632 dissolved in DMSO at a concentration in the final culture medium of 10 μM.
The cell ratio of each well of the three groups was 10 H9 cells/1 MEF cell.
Apoptosis was detected by flow cytometry using the specific apoptosis assay kit Annexin V/PI on day 2 of inoculation.

The test system of experiment [9] is H9 cells. Description: Ki67 proliferation marker immunofluorescence after total nutrient removal culture (Example 5 II). The note with it: 15 hours total nutrient removal culture; 100 μM. The experiment is classed as cell-based, human. On the procedure:
Following the experimental method in Example 3, H9 cells were divided into experiment group (ST group), control group (DMSO group) and normal culture group and cultured. After total nutrient removal culture for 15 hours, immunofluorescence staining of the H9 cells was conducted for Ki67 (a proliferation marker).

Take `NNC(=S)Nc1ccc(-c2nnc(S)o2)cc1` [Stemazole, 4-(4-(5-mercapto-1,3,4-oxadiazole-2-yl)phenyl)thiosemicarbazide]: in the experiment with H9 cells [1], the “expression of markers OCT-4, Sox2, FDF4, KLF4, REX1, Nanog by quantitative PCR” value is reported as “maintained the stem cell characteristics”; the “expression of markers OCT-4 and E-Cadherin by immunofluorescence staining” value is recorded as “maintained the stem cell characteristics”. Moreover, the “formation of EBs, diameter and number” value with H9 cells [2] was “more EBs with larger diameter”. Further, in experiment [3] (day 1 and day 8), the “OCT-4 immunofluorescence staining, single cell growth into monoclonal cells” value is “single cells had grown into monoclonal cells”. Moreover, in experiment [3] (day 4, DMSO group about 50), the “diameter of the alkaline phosphatase positive cells (clone size)” value was “about 100 microns”. Further, the “number of clones of alkaline phosphatase positive cells” value in experiment [3] (day 4, DMSO group about 8) is reported as “about 18”. In addition, in experiment [3] (day 8, DMSO group about 70), the “diameter of the alkaline phosphatase positive cells (clone size)” value is reported as “about 200 microns”. For the same molecule, the “number of clones of alkaline phosphatase positive cells” value in [3] (day 8, DMSO group about 12) was “about 23”. For the same molecule, in experiment [4], the “cell viability increase over the control group” value is listed as “up to 2.7 times”. In the experiment with H9 cells [5], the “expression of ectoderm marker GFAP” value is “comparable to that of the normal control group cells”, the “expression of ectoderm marker Pax6” value is on record as “higher than that of normal control group cells” and the “expression of mesoderm marker MSX1” value is given as “higher than that of normal control group cells”. Moreover, the “number of cells as a function of time” value in [6] was “did not increase”. Moreover, in experiment [7], the apoptosis rate entry is “about 8%”. The “Annexin V positive apoptotic cells” value in experiment [8] is on record as 25.2%. For the same molecule, in the experiment on H9 cells [9], the “expression of proliferation marker Ki67” value is on record as “maintained the proliferation ability”.

As to `C[C@@H](N)[C@H]1CC[C@H](C(=O)Nc2ccncc2)CC1` [Y27632, 4-[(1R)-1-aminoethyl]-N-(pyridine-4-yl)cyclohexane-1-carboxamide, reference compound], the “Annexin V positive apoptotic cells” value in [8] stood at 20.1%.

Consider `NNC(=S)Nc1ccc(-c2nnc(S)o2)cc1Br` [Br-Stemazole, 4-(2-br-4-(5-mercapto-1,3,4-oxadiazole-2-yl)phenyl)thiosemicarbazide], for which the “cell viability increase over the control group” value in experiment [4] is reported as “up to 2.1 times”.
